Literature values as cited in patent US20260284233A1, “IMAGING METHODS AND AGENTS FOR GRADING AND STAGING AND SUBSEQUENT TREATMENT OF PROSTATE CANCER IN A PATIENT” (Progenics Pharmaceuticals, Inc., priority 2023, published 2026).

Tests used:
[1] = tested on: extracellular domain of PSMA
[2] = 333 MBq (9 mCi) dose; data from clinical trials; compared with commonly used tracers for oncologic imaging

binding affinity to the extracellular domain of PSMA [1]: high affinity
Compound: O=C(O)CC[C@H](NC(=O)N[C@@H](CCCCNC(=O)c1ccc([18F])nc1)C(=O)O)C(=O)O [piflufolastat F18]
mean effective radiation dose to the whole body [2]: lower than commonly used tracers for oncologic imaging
